Here are results for one compound from patent US20090104240A1, “Dual Drug Formulations For Implantable Medical Devices For Treatment of Vascular Diseases” (Abbott Cardiovascular Systems Inc., priority 2007, published 2009).

The test system of one data set is inflammation. Kind of data set: effect of corticosteroid on inflammation. It counts as in vivo. The conditions noted are these: super high potency corticosteroid.
Data set [1] deals with vessel endothelialization. Nature of the data set: effect of corticosteroid on vessel endothelialization. It counts as in vivo. The conditions noted are these: super high potency corticosteroid.

In the case of `CC1CC2C3CCC4=CC(=O)C=CC4(C)C3(F)C(=O)CC2(C)C1(O)C(=O)CCl` (centres unmarked) [clobetasone], the “effect with regard to inflammation” value in the data set with inflammation is listed as “beneficial effect with regard to inflammation”. The vessel endothelialization result in data set [1] is given as “impairment of vessel endothelialization was observed”.
